Results as given in PubChem BioAssay AID192 (DTP/NCI, 2004).
“And” between values parts separate entries of the source, which are not always exact repeats. Equal values may be shown once. Toxic doses and inconclusive results are not listed. How the source made its calls: active means survival T/C of 150% or more; inactive means T/C below 125% in these data. Square brackets hold non-standard residues; d marks the D form. Peptide text beside a SMILES is read from it. Abu = CC[CH](N)C(=O)O

System: BDF1 mice, B16 melanoma ip, median survival T/C
Assay: NCI In Vivo Anticancer Drug Screen. Data for tumor model B16 Melanoma (intraperitoneal) in B6D2F1 (BDF1) mice
Conditions: endpoint: median survival time, higher = longer survival
Procedure, shortened: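 Read-out: survival or tumor size, given as treated/control ratio. Controls received vehicle only; animals bore transplantable tumors.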

[1] = dose: 6.25 mg/kg/injection, schedule: Q01DX009 (ip), vehicle: saline with Tween-80
[2] = dose: 25.0 mg/kg/injection, schedule: Q01DX009 (ip), vehicle: saline with Tween-80
[3] = dose: 25.0 mg/kg/injection, schedule: Q01DX009 (ip), vehicle: saline
[4] = dose: 50.0 mg/kg/injection, schedule: Q01DX009 (ip), vehicle: saline
[5] = dose: 100.0 mg/kg/injection, schedule: Q01DX009 (ip), vehicle: saline
[6] = dose: 50.0 mg/kg/injection, schedule: Q01DX009 (ip), vehicle: saline with Tween-80
[7] = dose: 100.0 mg/kg/injection, schedule: Q01DX009 (ip), vehicle: saline with Tween-80
[8] = dose: 200.0 mg/kg/injection, schedule: Q01DX009 (ip), vehicle: saline with Tween-80
[9] = dose: 200.0 mg/kg/injection, schedule: Q01DX009 (ip), vehicle: saline
[10] = dose: 100.0 mg/kg/injection, schedule: Q01DX009 (ip), vehicle: Klucel (hydroxypropylcellulose) (HPC)
[11] = dose: 200.0 mg/kg/injection, schedule: Q01DX009 (ip), vehicle: Klucel (hydroxypropylcellulose) (HPC)
[12] = dose: 25.0 mg/kg/injection, schedule: Q01DX009 (ip), vehicle: Klucel (hydroxypropylcellulose) (HPC)
[13] = dose: 400.0 mg/kg/injection, schedule: Q01DX009 (ip), vehicle: Klucel (hydroxypropylcellulose) (HPC)
[14] = dose: 50.0 mg/kg/injection, schedule: Q01DX009 (ip), vehicle: Klucel (hydroxypropylcellulose) (HPC)

Measured: T/C

CC(C)(CN=Cc1ccccc1[O-])N=Cc1ccccc1[O-].[O]=[V]
inactive: [1] 95 % of control | dose: 6.25 mg/kg/injection, schedule: Q04DX003 (ip), vehicle: saline with Tween-80 113 % of control | dose: 12.5 mg/kg/injection, schedule: Q01DX009 (ip), vehicle: saline with Tween-80 95 % of control | dose: 12.5 mg/kg/injection, schedule: Q04DX003 (ip), vehicle: saline with Tween-80 91 % of control | [2] 92 % of control | dose: 25.0 mg/kg/injection, schedule: Q04DX003 (ip), vehicle: saline with Tween-80 104 % of control

O=C(Nc1ccccc1Cl)Oc1ccc(-c2ccccc2)cc1Br
inactive: dose: 100.0 mg/kg/injection, schedule: Q04DX003 (ip), vehicle: Klucel (hydroxypropylcellulose) (HPC) 100 % of control | dose: 200.0 mg/kg/injection, schedule: Q04DX003 (ip), vehicle: Klucel (hydroxypropylcellulose) (HPC) 103 % of control | dose: 400.0 mg/kg/injection, schedule: Q04DX003 (ip), vehicle: Klucel (hydroxypropylcellulose) (HPC) 93 % of control

Clc1ccc(/C=C2\c3cc(Cl)ccc3-c3c(Cl)cc(Cl)cc32)cc1
inactive: [1] 90 % of control

CN(C)CCCN1c2ccccc2S(=O)c2ccc(Cl)cc21 (stereo not drawn)
inactive: dose: 12.5 mg/kg/injection, schedule: Q01DX009 (ip), vehicle: saline 97 % of control | [3] 100 % of control | [4] 108 % of control | [5] 94 % of control

CCC(C)(CC)OC(N)=O
inactive: [2] 112 % of control | [3] 95 % of control | [6] 112 % of control | [4] 95 % of control | [7] 105 % of control | [5] 100 % of control | [8] 104 % of control | [9] 95 % of control

Cc1ccc(CS)cc1
inactive: [10] 112 % of control | [11] 118 % of control

C=C1Sc2ccccc2N1C
inactive: dose: 12.5 mg/kg/injection, schedule: Q01DX009 (ip), vehicle: Klucel (hydroxypropylcellulose) (HPC) 96 % of control | [12] 94 % of control

CN(/N=N/c1nc[nH]c1C(N)=O)C1CCCCC1
inactive: dose: 50.0 mg/kg/injection, schedule: Q01DX009 (ip), vehicle: carboxymethylcellulose (CMC) 123 % of control

O=C(CCl)Oc1cccc([N+](=O)[O-])c1
inactive: [2] 107 % of control | [6] 102 % of control | [7] 101 % of control

CCCCCCCC(=O)N(C)OC
inactive: dose: 6.25 mg/kg/injection, schedule: Q04DX003 (ip), vehicle: Klucel (hydroxypropylcellulose) (HPC) 107 % of control | dose: 12.5 mg/kg/injection, schedule: Q04DX003 (ip), vehicle: Klucel (hydroxypropylcellulose) (HPC) 96 % of control | dose: 25.0 mg/kg/injection, schedule: Q04DX003 (ip), vehicle: Klucel (hydroxypropylcellulose) (HPC) 112 % of control

CC(/C=N/N=C(N)N)=N\NC(N)=S
inactive: dose: 50.0 mg/kg/injection, schedule: Q01DX009 (ip), vehicle: distilled water + Tween-80 105 % of control | dose: 100.0 mg/kg/injection, schedule: Q01DX009 (ip), vehicle: distilled water + Tween-80 94 % of control

O=C1C(=O)c2ccccc2C(O)=C1CCCc1ccc(C2CCCCC2)cc1
inactive: [2] 104 % of control | [8] 88 % of control

O=C1NC(c2ccc3ccccc3c2)Nc2ccccc21 (stereo not drawn)
inactive: [10] 96 % of control | [11] 103 % of control | [13] 90 % of control

NC(=O)c1ccccc1NC(=O)COc1ccc(Cl)cc1
inactive: [10] 106 % of control | [11] 106 % of control | [13] 100 % of control

COCc1cc(C(C)(C)C)c(O)c(C(C)(C)C)c1
inactive: [10] 90 % of control | [11] 92 % of control | [13] 95 % of control

CCC1=C(C[C@H]2NCCc3cc(OC)c(OC)cc32)C[C@H]2c3cc(OC)c(OC)cc3CCN2C1
inactive: dose: 2.0 mg/kg/injection, schedule: Q01DX009 (ip), vehicle: Klucel (hydroxypropylcellulose) (HPC) 114 % of control | dose: 2.0 mg/kg/injection, schedule: Q01DX009 (ip), vehicle: saline 103 % of control and 111 % of control | dose: 4.0 mg/kg/injection, schedule: Q01DX009 (ip), vehicle: saline 106 % of control and 107 % of control | dose: 5.0 mg/kg/injection, schedule: Q01DX005 (ip), vehicle: saline 118 % of control | dose: 5.0 mg/kg/injection, schedule: Q01DX009 (ip), vehicle: Klucel (hydroxypropylcellulose) (HPC) 116 % of control

CCCC(C(=O)O)C(CCC)C(=O)O (stereo not drawn)
inactive: dose: 100.0 mg/kg/injection, schedule: Q04DX003 (ip), vehicle: saline with Tween-80 97 % of control | dose: 200.0 mg/kg/injection, schedule: Q04DX003 (ip), vehicle: saline with Tween-80 88 % of control | dose: 400.0 mg/kg/injection, schedule: Q04DX003 (ip), vehicle: saline with Tween-80 88 % of control

CCC(N)C(=O)NC(C(N)=O)C(C)C (stereo not drawn) (H-[Abu]-Val-NH2; configuration not given here)
inactive: [4] 90 % of control | [5] 100 % of control | [9] 110 % of control | dose: 400.0 mg/kg/injection, schedule: Q01DX009 (ip), vehicle: saline 100 % of control

O=CNC(CSC(=O)c1ccccc1)C(=O)O (stereo not drawn)
inactive: [14] 100 % of control | [10] 100 % of control | [11] 94 % of control

CC(C)(C)OC(=O)CCC(NC(=O)OCc1ccccc1)C(=O)NN (stereo not drawn)
inactive: dose: 75.0 mg/kg/injection, schedule: Q04DX003 (ip), vehicle: Klucel (hydroxypropylcellulose) (HPC) 97 % of control | dose: 150.0 mg/kg/injection, schedule: Q04DX003 (ip), vehicle: Klucel (hydroxypropylcellulose) (HPC) 100 % of control | dose: 300.0 mg/kg/injection, schedule: Q04DX003 (ip), vehicle: Klucel (hydroxypropylcellulose) (HPC) 97 % of control

C=C(C)[C@@H]1CC[C@]2(C)CC[C@]3(C)[C@H](CC[C@@H]4[C@@]5(C)CC[C@H](O)C(C)(C)[C@@H]5CC[C@]43C)[C@@H]12
inactive: dose: 0.75 mg/kg/injection, schedule: Q01DX009 (ip), vehicle: Klucel (hydroxypropylcellulose) (HPC) 101 % of control | dose: 1.5 mg/kg/injection, schedule: Q01DX009 (ip), vehicle: Klucel (hydroxypropylcellulose) (HPC) 95 % of control | dose: 3.0 mg/kg/injection, schedule: Q01DX009 (ip), vehicle: Klucel (hydroxypropylcellulose) (HPC) 95 % of control

CCC(=O)O[C@H]1CC[C@H]2[C@@H]3CCC4=CC(=O)CC[C@]4(C)[C@H]3CC[C@]12C
inactive: [12] 96 % of control | dose: 40.0 mg/kg/injection, schedule: Q02DX009 (ip), vehicle: Klucel (hydroxypropylcellulose) (HPC) 100 % of control | [14] 90 % of control | dose: 80.0 mg/kg/injection, schedule: Q02DX009 (ip), vehicle: Klucel (hydroxypropylcellulose) (HPC) 105 % of control | [10] 95 % of control | [11] 91 % of control | dose: 320.0 mg/kg/injection, schedule: Q02DX009 (ip), vehicle: Klucel (hydroxypropylcellulose) (HPC) 105 % of control | [13] 94 % of control

Cc1ccc(S(=O)(=O)[O][Pb]([CH3])([CH3])[CH3])cc1
inactive: dose: 0.18 mg/kg/injection, schedule: Q01DX009 (ip), vehicle: saline 97 % of control | dose: 0.37 mg/kg/injection, schedule: Q01DX009 (ip), vehicle: saline 92 % of control | dose: 0.75 mg/kg/injection, schedule: Q01DX009 (ip), vehicle: saline 104 % of control | dose: 1.5 mg/kg/injection, schedule: Q01DX009 (ip), vehicle: saline 97 % of control

N#CCCN(CCC#N)/N=N\c1nc[nH]c1C(N)=O
inactive: [6] 89 % of control | [7] 100 % of control | [8] 100 % of control | dose: 400.0 mg/kg/injection, schedule: Q01DX009 (ip), vehicle: saline with Tween-80 100 % of control
